Test results as given in US20120107323A1, “KINASE PROTEIN BINDING INHIBITORS” (University of Florida, priority 2009, published 2012).

Experiments:
Assay type in all cases: cell-based
[1] = molecular target: T1, FAK and IGF-1R (Homo sapiens, UniProt Q05397); experiment: Coimmunoprecipitation of FAK and IGF-1R in C8161 melanoma cells; conditions: average IC50, C8161 cells, immunoprecipitation with antibody against FAK; read-out: IC50, disruption of FAK/IGF-1R binding
T1 construct: endogenous in cells; host or cells: C8161 (A2) and A375 (A3) melanoma cells
T1 sequence (Q05397 2-1052 limits assumed): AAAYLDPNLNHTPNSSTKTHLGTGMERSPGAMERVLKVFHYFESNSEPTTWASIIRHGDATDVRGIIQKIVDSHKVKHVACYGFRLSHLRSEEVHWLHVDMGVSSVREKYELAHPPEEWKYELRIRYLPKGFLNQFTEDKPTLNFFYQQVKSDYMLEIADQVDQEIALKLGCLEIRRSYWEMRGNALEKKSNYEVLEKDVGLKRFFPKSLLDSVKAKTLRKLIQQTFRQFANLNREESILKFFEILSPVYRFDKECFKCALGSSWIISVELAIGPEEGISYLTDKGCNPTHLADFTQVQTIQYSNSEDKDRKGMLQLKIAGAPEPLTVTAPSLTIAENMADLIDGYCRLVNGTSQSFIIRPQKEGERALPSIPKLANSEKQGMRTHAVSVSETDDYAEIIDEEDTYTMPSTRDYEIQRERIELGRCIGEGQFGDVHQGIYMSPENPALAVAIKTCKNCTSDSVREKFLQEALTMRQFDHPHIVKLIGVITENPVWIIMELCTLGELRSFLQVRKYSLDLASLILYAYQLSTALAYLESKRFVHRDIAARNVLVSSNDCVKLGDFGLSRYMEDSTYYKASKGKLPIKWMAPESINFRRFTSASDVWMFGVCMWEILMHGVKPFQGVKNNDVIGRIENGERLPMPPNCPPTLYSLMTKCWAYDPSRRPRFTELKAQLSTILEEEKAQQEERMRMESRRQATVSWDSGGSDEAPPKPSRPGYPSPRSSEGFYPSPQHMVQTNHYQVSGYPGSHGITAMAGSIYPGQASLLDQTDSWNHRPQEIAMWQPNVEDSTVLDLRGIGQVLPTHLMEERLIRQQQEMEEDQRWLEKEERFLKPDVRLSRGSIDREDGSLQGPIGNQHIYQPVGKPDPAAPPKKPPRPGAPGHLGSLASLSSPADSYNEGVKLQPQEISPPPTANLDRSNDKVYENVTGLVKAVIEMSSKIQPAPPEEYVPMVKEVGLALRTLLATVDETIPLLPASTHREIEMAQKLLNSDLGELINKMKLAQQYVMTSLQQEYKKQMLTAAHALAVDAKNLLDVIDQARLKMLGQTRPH
Source text: Computational Docking The crystal structures of the N-terminal domain of FAK (PDB code 2AL6) (22) and the kinase domain of IGF-1R(PDB 1P40A) (23) were utilized for in silico molecular modeling of their interaction as previously described. The three-dimensional coordinates of compound NSC344553 (INT2-31), obtained from the database of the National Cancer Institute, Developmental Therapeutics Program (NCI/DTP), were docked onto the predicted interface of the amino-terminus of FAK (amino acids 127-243) with the intracytoplasmic portion of IGF-1R (21). […] 100 orientations were created for NSC344553 in the target site and were scored using the computer program grid-based scoring function. […] The intermolecular energies for all configurations of NSC 344553 in binding to FAK-NT2 were calculated as the sum of electrostatic and van der Waals energies. These energy terms were evaluated as correlation functions, which were computed efficiently with Fast Fourier Transforms. […] Bound proteins were boiled in 6× Laemmli buffer and analyzed by SDS-PAGE and Western blotting. […] The intensity of the bands in the western blots was measured with scion image analysis software program. […]

[2] = tested on: esophageal patient #5 cells; experiment: Cell viability (MTT), esophageal patient #5 cells; conditions: Homo sapiens, average IC50
Protocol: (§1) Cell viability (MTT) and CFSE Proliferation assay: Cells were plated in 96-well plates and let adhere overnight. After cell treatment, cell viability was measured by 3-(4,5-dimethylthiazol-2-yl)-2,5-diphenyl tetrazolium bromide (MTT) assay (CellTiter 96® Aqueous, Promega, Madison, Wis.).
To assimilate the effects of targeting the interaction of these proteins in direct patient specimens, a system was developed in which direct esophageal cancer specimens were grown in mice and tissue culture plates to allow fresh human tissue for experimentation. More than 20 tumors and corresponding normal tissue specimens have been obtained from cancer patients. […] To evaluate the in vitro effects of INT2-31 on patient specimens, we utilized MTT assay of cells grown in a tissue culture plate maximum up to eight passages were utilized.

[3] = tested on: normal human melanocytes; experiment: Cell viability (MTT), melanocytes; conditions: Melanocyte, Melonocyte, 72 hours, read-out: IC50 of INT2-31, cell viability
Protocol: as §1
(§2) Cell viability and detachment assays: After cells were treated with siRNA transfection, cell viability was measured by 3-(4,5-dimethylthiazol2-yl)-2,5-diphenyl tetrazolium bromide (MTT) assay (CellTiter 96® AQueous, Promega, Madison, Wis.). Briefly, 20 μl of the tetrazolium compound was added to each well. The cells were then incubated at 37° C. for 1 h. The plate was read at 490 nm with a plate reader to determine the viability. In detachment assays, detached and attached cells were harvested separately and counted in a hemocytometer. The percentage of detachment was calculated by dividing the number of detached cells by the total number of cells. Apoptosis assays: After treatment, attached and detached cells were collected, counted and prepared for terminal uridine deoxynucleotidyl transferase (TUNEL) assay by utilizing an APO-BRDU kit (BD Pharmingen, San Diego, Calif.) according to the manufacturer's instructions. Stained cells were analyzed with a fluorescence-activated cell sorting-Calibur flow cytometer (BD Biosciences). […] Apoptotic cells were also analyzed by Hoechst staining. […]

[4] = tested on: KYSE180 esophageal cancer cells; experiment: Cell viability (MTT), KYSE180; conditions: Homo sapiens, KYSE-180; KYSE180, 72 hours; read-out: IC50 of INT2-31, cell viability
Protocol: as §1, §2

SMILES: CSc1ncnc2c1ccn2C1O[C@H](COP(=O)(O)O)[C@@H](O)[C@H]1O (stereo partly drawn) [INT2-31, 4-(Methylthio)-7-(5-O-phosphono-D-ribofuranosyl)-{7H-Pyrrolo[2,3-d]pyrimidine}]
- IC50 [1]: 2.72 µM
- IC50 [2]: 2.18 µM
- IC50 [3]: 97.3 µM
- IC50 [4]: 19.8 µM
